Measurements: patent publication US20190358181A1, “METHODS FOR AUTISM SPECTRUM DISORDER PHARMACOTHERAPY” (priority 2017, published 2019)

System: 610 metabolites from 63 biochemical pathways
Experiment: Targeted broad-spectrum plasma metabolomic analysis (LC-MS/MS), paired pre-infusion vs post-infusion (2-days and 6-weeks)
Format: in vivo, human
Protocol: Targeted, broad-spectrum, plasma metabolomic analysis of 610 metabolites from 63 biochemical pathways was performed by high performance liquid chromatography and tandem mass spectrometry (LC-MS/MS) on the samples collected from patients in Example 1. Venous blood was collected between the hours of 8 am and 5 pm, at least 3 hours after the last meal, into lithium-heparin vacutainer tubes (BD #367884). Plasma was separated by centrifugation at 900 g×10 minutes at room temperature within one hour of collection. The resulting fresh lithium-heparin plasma was transferred to labeled 1.2 ml or 2.0 ml externally threaded cryotubes with a minimum headspace air gap for storage at −80° C. for analysis. Samples were analyzed on an AB SCIEX QTRAP 5500 triple quadrupole mass spectrometer equipped with a Turbo V electrospray ionization (ESI) source, Shimadzu LC-20A UHPLC system, and a PAL CTC autosampler. Typically, 90 μl of plasma was thawed on ice and transferred to a 1.7 ml Eppendorf tube. Five (5.0) μl of a cocktail containing 25-35 commercial stable isotope internal standards, and 5.0 μl of 57 stable isotope internal standards that were custom-synthesized in E. coli NCM3722, Caenorhabditis elegans N2, and Komagataella phaffii (ATCC 76273; formerly known as Pichia pastoris) by metabolic labeling with 13C-glucose and 13C-bicarbonate, were added, mixed, and incubated for 10 min at 20° C. to permit small molecules and vitamins in the internal standards to associate with plasma binding proteins. Macromolecules (protein, DNA, RNA, glycans, etc.) were precipitated by extraction with 4 volumes (400 μl) of cold (−20° C.), acetonitrile:methanol (50:50) (LCMS grade, Cat #LC015-2.5 and GC230-4, Burdick & Jackson, Honeywell), vortexed vigorously, and incubated on crushed ice for 10 min, then removed by centrifugation at 16,000 g×10 min at 4° C. The supernatants containing the extracted metabolites and internal standards in the resulting 40:40:20 solvent mix of acetonitrile:methanol:water were transferred to labeled cryotubes and stored at −80° C. for LCMS/MS analysis.
LC-MS/MS analysis was performed by scheduled multiple reaction monitoring (sMRM) under Analyst v1.6.2 software control in both negative and positive mode with rapid polarity switching (50 ms). Nitrogen was used for curtain gas (set to 30), collision gas (set to high), ion source gas 1 and 2 (set to 35). The source temperature was 500° C. Spray voltage was set to −4500 V in negative mode and 5500 V in positive mode. The values for Q1 and Q3 mass-to-charge ratios (m/z), declustering potential (DP), entrance potential (EP), collision energy (CE), and collision cell exit potential (CXP) were determined and optimized for each MRM for each metabolite. Ten microliters of extract was injected by PAL CTC autosampler via a 10 μl stainless steel loop into a 250 mm×2.0 mm, 4 μm polymer based NH2 HPLC column (Asahipak NH2P-40 2E, Showa Denko America, Inc., NY) held at 25° C. for chromatographic separation. The mobile phase was solvent A: 95% water with 20 mM (NH4)2CO3 (Sigma, Fluka Cat #74415-250G-F), 5% acetonitrile, and 38 mM NH4OH (Sigma, Fluka Cat #17837-100ML), final pH 9.75; solvent B: 100% acetonitrile. Separation was achieved using the following gradient: 0-3.5 min: 95% B, 3.6-8 min: 85% B, 8.1-13 min: 75% B, 13.5-35 min: 0% B, 36-46 min: 95% B, 46.1 min: end. The flow rate was 200 μl/min. Pump pressures ranged from 920-2600 psi over the course of the gradient. All the samples were kept at 4° C. during analysis. The chromatographic peaks were identified using MultiQuant (v3.0, Sciex), confirmed by manual inspection, and the peak areas integrated. […]

[1] = S-Adenosylhomocysteine, plasma, 6-weeks
[2] = SAM, SAH, Methionine, Cysteine, Glutathione, 2-days
[3] = SAM, SAH, Methionine, Cysteine, Glutathione, 6-weeks
[4] = SM(d18:1/18:2), plasma, 6-weeks
[5] = SM(d18:1/26:0 OH), plasma, 6-weeks
[6] = Sphingomyelin Metabolism, 2-days
[7] = Sphingomyelin Metabolism, 6-weeks
[8] = Subtotal, all pathways, 6-weeks
[9] = Subtotals, all pathways, 2-days
[10] = Taurine, Hypotaurine Metabolism, 2-days
[11] = Tryptophan, Kynurenine, Serotonin, Melatonin, 6-weeks
[12] = Tryptophan, Kynurenine, Serotonin, 2-days
[13] = Tyrosine and Phenylalanine Metabolism, 2-days
[14] = Tyrosine and Phenylalanine Metabolism, 6-weeks
[15] = Vitamin C (Ascorbate) Metabolism, 6-weeks
[16] = Vitamin D (Calciferol) Metabolism, 2-days
[17] = cis-aconitic acid, plasma, 6-weeks
[18] = lsovalerylglycine, plasma, 6-weeks
[19] = p-Hydroxyphenylacetic acid, plasma, 6-weeks
[20] = plasma, 2-days after infusion vs pre-infusion, Amino Acid Metabolism (not otherwise covered)
[21] = plasma, 2-days after infusion vs pre-infusion, Amino-Sugar, Galactose, & Non-Glucose Metabolism
[22] = plasma, 2-days after infusion vs pre-infusion, Bile Salt Metabolism
[23] = plasma, 2-days after infusion vs pre-infusion, Bioamines and Neurotransmitter Metabolism
[24] = plasma, 2-days after infusion vs pre-infusion, Branch Chain Amino Acid Metabolism
[25] = plasma, 2-days after infusion vs pre-infusion, Cardiolipin Metabolism
[26] = plasma, 2-days after infusion vs pre-infusion, Ceramide Metabolism

## Cc1ccc(C(=O)Nc2ccc(S(=O)(=O)O)c3cc(S(=O)(=O)O)cc(S(=O)(=O)O)c23)cc1NC(=O)c1cccc(NC(=O)Nc2cccc(C(=O)Nc3cc(C(=O)Nc4ccc(S(=O)(=O)O)c5cc(S(=O)(=O)O)cc(S(=O)(=O)O)c45)ccc3C)c2)c1 [Suramin, suramin]
Purine Metabolism, 2-days
  Fraction of Impact (VIP Score) Explained (% of 119.7): 15%
  Impact (Sum VIP Score): 17.6
  Increased: 4
  Observed Hits in the Top 61 Metabolites: 9
Purine Metabolism, 6-weeks
  Decreased: 2
  Fold Enrichment (Obs/Exp): 1.7
  Fraction of Impact (VIP Score) Explained (% of 94.6): 11%
  Impact (Sum VIP Score): 10.2
  Increased: 3
  Observed Hits in the Top 48 Metabolites: 5
Purine, plasma, 6-weeks
  Linear Ratio: 1.307
  VIP Score: 1.980
  Z Abs: 1.650
  Z Score: 1.650
Pyrimidine Metabolism, 2-days
  Decreased: 1
  Fold Enrichment (Obs/Exp): 1.6
  Fraction of Impact (VIP Score) Explained (% of 119.7): 4%
  Impact (Sum VIP Score): 4.3
  Increased: 1
  Observed Hits in the Top 61 Metabolites: 2
Pyrimidine Metabolism, 6-weeks
  Decreased: 0
  Fold Enrichment (Obs/Exp): 2.0
  Fraction of Impact (VIP Score) Explained (% of 94.6): 4%
  Impact (Sum VIP Score): 4.2
  Increased: 2
  Observed Hits in the Top 48 Metabolites: 2
[1]
  Linear Ratio: 1.417
  VIP Score: 1.894
  Z Abs: 0.971
  Z Score: 0.971
[2]
  Decreased: 1
  Fold Enrichment (Obs/Exp): 1.4
  Fraction of Impact (VIP Score) Explained (% of 119.7): 5%
  Impact (Sum VIP Score): 5.6
  Increased: 2
  Observed Hits in the Top 61 Metabolites: 3
[3]
  Decreased: 0
  Fold Enrichment (Obs/Exp): 3.0
  Fraction of Impact (VIP Score) Explained (% of 94.6): 10%
  Impact (Sum VIP Score): 9.5
  Increased: 5
  Observed Hits in the Top 48 Metabolites: 5
[4]
  Linear Ratio: 1.424
  VIP Score: 1.508
  Z Abs: 0.750
  Z Score: 0.750
[5]
  Linear Ratio: 1.671
  VIP Score: 2.622
  Z Abs: 2.002
  Z Score: 2.002
[6]
  Decreased: 2
  Fold Enrichment (Obs/Exp): 0.4
  Fraction of Impact (VIP Score) Explained (% of 119.7): 3%
  Impact (Sum VIP Score): 3.6
  Increased: 0
  Observed Hits in the Top 61 Metabolites: 2
[7]
  Decreased: 0
  Fold Enrichment (Obs/Exp): 0.5
  Fraction of Impact (VIP Score) Explained (% of 94.6): 4%
  Impact (Sum VIP Score): 4.1
  Increased: 2
  Observed Hits in the Top 48 Metabolites: 2
[8]
  Decreased: 6
  Increased: 42
[9]
  Decreased: 23
  Increased: 38
[10]
  Decreased: 1
  Fold Enrichment (Obs/Exp): 3.5
  Fraction of Impact (VIP Score) Explained (% of 119.7): 2%
  Impact (Sum VIP Score): 2.0
  Increased: 0
  Observed Hits in the Top 61 Metabolites: 1
Tiglylglycine, plasma, 6-weeks
  Linear Ratio: 1.302
  VIP Score: 1.878
  Z Abs: 1.310
  Z Score: 1.310
[11]
  Decreased: 0
  Fold Enrichment (Obs/Exp): 1.5
  Fraction of Impact (VIP Score) Explained (% of 94.6): 2%
  Impact (Sum VIP Score): 2.1
  Increased: 1
  Observed Hits in the Top 48 Metabolites: 1
[12]
  Decreased: 0
  Fold Enrichment (Obs/Exp): 1.2
  Fraction of Impact (VIP Score) Explained (% of 119.7): 1%
  Impact (Sum VIP Score): 1.6
  Increased: 1
  Observed Hits in the Top 61 Metabolites: 1
[13]
  Decreased: 0
  Fold Enrichment (Obs/Exp): 2.4
  Fraction of Impact (VIP Score) Explained (% of 119.7): 2%
  Impact (Sum VIP Score): 1.8
  Increased: 1
  Observed Hits in the Top 61 Metabolites: 1
[14]
  Decreased: 0
  Fold Enrichment (Obs/Exp): 6.0
  Fraction of Impact (VIP Score) Explained (% of 94.6): 4%
  Impact (Sum VIP Score): 3.7
  Increased: 2
  Observed Hits in the Top 48 Metabolites: 2
Uridine, plasma, 6-weeks
  Linear Ratio: 1.244
  VIP Score: 1.764
  Z Abs: 0.928
  Z Score: 0.928
[15]
  Decreased: 0
  Fold Enrichment (Obs/Exp): 4.5
  Fraction of Impact (VIP Score) Explained (% of 94.6): 2%
  Impact (Sum VIP Score): 2.0
  Increased: 1
  Observed Hits in the Top 48 Metabolites: 1
[16]
  Decreased: 1
  Fold Enrichment (Obs/Exp): 2.4
  Fraction of Impact (VIP Score) Explained (% of 119.7): 3%
  Impact (Sum VIP Score): 3.1
  Increased: 0
  Observed Hits in the Top 61 Metabolites: 1
[17]
  Linear Ratio: 1.278
  VIP Score: 1.852
  Z Abs: 0.928
  Z Score: 0.928
Day 2
  metabolites significantly changed by suramin (total): 61
[18]
  Linear Ratio: 2.027
  VIP Score: 1.888
  Z Abs: 0.901
  Z Score: 0.901
[19]
  Linear Ratio: 1.306
  VIP Score: 2.203
  Z Abs: 2.226
  Z Score: 2.226
plasma
  1-Methyl-adenine (1-MA): increased
  AICAR: increased
  cAMP: decreased
  dGDP: decreased
[20]
  Linear Ratio, Alanine: 1.193
  VIP Score, Alanine: 1.776
  Z Abs, Alanine: 1.066
  Z Score, Alanine: 1.066
[21]
  Linear Ratio, Myoinositol: 1.286
  VIP Score, Myoinositol: 1.645
  Z Abs, Myoinositol: 0.785
  Z Score, Myoinositol: 0.785
[22]
  Linear Ratio, Chenodeoxyglycocholic acid: 2.787
  Linear Ratio, Glycocholic acid: 2.344
  Linear Ratio, Taurocholic acid: 2.183
  Linear Ratio, Taurodeoxycholic acid Pool: 2.614
  VIP Score, Chenodeoxyglycocholic acid: 3.171
  VIP Score, Glycocholic acid: 3.090
  VIP Score, Taurocholic acid: 2.615
  VIP Score, Taurodeoxycholic acid Pool: 3.048
  Z Abs, Chenodeoxyglycocholic acid: 1.610
  Z Abs, Glycocholic acid: 2.020
  Z Abs, Taurocholic acid: 1.102
  Z Abs, Taurodeoxycholic acid Pool: 1.326
  Z Score, Chenodeoxyglycocholic acid: 1.610
  Z Score, Glycocholic acid: 2.020
  Z Score, Taurocholic acid: 1.102
  Z Score, Taurodeoxycholic acid Pool: 1.326
[23]
  Linear Ratio, Dopamine: 0.877
  Linear Ratio, L-Glutamic acid: 0.797
  VIP Score, Dopamine: 1.653
  VIP Score, L-Glutamic acid: 1.641
  Z Abs, Dopamine: 0.642
  Z Abs, L-Glutamic acid: 0.619
  Z Score, Dopamine: −0.642
  Z Score, L-Glutamic acid: −0.619
[24]
  Linear Ratio, Isovalerylglycine: 1.951
  Linear Ratio, L-Isoleucine: 1.094
  Linear Ratio, L-Valine: 1.165
  Linear Ratio, Tiglylglycine: 1.141
  VIP Score, Isovalerylglycine: 1.783
  VIP Score, L-Isoleucine: 2.136
  VIP Score, L-Valine: 1.808
  VIP Score, Tiglylglycine: 1.562
  Z Abs, Isovalerylglycine: 0.852
  Z Abs, L-Isoleucine: 0.815
  Z Abs, L-Valine: 0.749
  Z Abs, Tiglylglycine: 0.657
  Z Score, Isovalerylglycine: 0.852
  Z Score, L-Isoleucine: 0.815
  Z Score, L-Valine: 0.749
  Z Score, Tiglylglycine: 0.657
[25]
  Linear Ratio, CL(18:2/18:2/18:2/18:1): 1.102
  Linear Ratio, CL(18:2/18:2/18:2/18:2): 1.181
[26]
  Linear Ratio, Ceramide(d18:1/18:2): 1.337
  VIP Score, Ceramide(d18:1/18:2): 1.521
